Results on 3 compounds are retold here after patent US20170014407A1, “PYRIDAZINE DERIVATIVES FOR USE IN THE PREVENTON OR TREATMENT OF AN ATAXIC DISORDER” (TAKEDA PHARMACEUTICAL COMPANY LIMITED, priority 2014, published 2017).

Test [1] concerns mice carrying inherited or chemically-induced ataxia mutations. The following applies: Saigoh et al. 1998, cited from earlier work; for Concentration of endogenous D-serine in the cerebellum: ataxic mutant mice; for Effect on ataxia: mice carrying inherited or chemically-induced ataxia mutations.
The next test deals with C57B16 mice. Briefly: Delayed eyeblink conditioning test (dEBC). The following applies: Group E, scopolamine 0.3 mg/kg subcutaneous. It is filed as in vivo, mouse. From the text: Three-month old, male C57B16 mice were implanted with recording electrodes in the orbicularis oculi muscle and with stimulating electrodes on the supraorbital nerve. For classical conditioning, animals were presented with a 350-ms tone as a conditioned stimulus (CS) at the end of which received an electrical pulse in the supraorbital nerve as unconditioned stimulus (US). Classical conditioning was achieved using a delay paradigm. For this, a tone (350 ms, 2 kHz, 85-90 dB) was presented as CS. The US consisted of a paired pulse with 1 millisecond of inter-pulse interval. Each pulse lasted for 0.1 millisecond. The US was presented at the end of the CS. A total of two habituation, ten conditioning, and five extinction sessions were carried out for each animal. Further details of this method can be found in the article by Gruart A., “Involvement of the CA3-CA1 synapse in the acquisition of associative learning in behaving mice”, J. Neurosci., 2006, 26, 1077-1087.
The effects on associative learning of a DAAO inhibitor compound of the invention were compared against different control and scopolamine-administered groups. Scopolamine is io a non-selective muscarinic receptor antagonist shown to consistently produce impairment of learning in rodents (see Klinkenberg, A., “The validity of scopolamine as a pharmacological model for cognitive impairment: A review of animal behavioral studies” Neuroscience and Biobehavioral Reviews, 2010, 34, 1307-1350.
is Nine groups, each containing 15 mice except for the untreated control group which contained 14 mice, were tested:
Group A was orally administered with Vehicle 1 (an aqueous solution of 0.5% methyl cellulose);
Group B was orally administered with a solution of a DAAO inhibitor of formula (I) in Vehicle 1 at a dose of 0.1 mg/kg (Solution 1);
Group C was orally administered with a solution of a DAAO inhibitor of formula (I) (the same one as for Group B) in Vehicle 1 at a dose of 1.0 mg/kg (Solution 2);
Group D was administered subcutaneously with Vehicle 2 (distilled water);
Group E was administered subcutaneously with a solution of scopolamine in Vehicle 2 at a dose of 0.3 mg/kg (Solution 3);
Group F was administered orally with Solution 1 and subcutaneously with Solution 3;
Group G was administered orally with Solution 2 and subcutaneously with Solution 3;
Group H was administered orally with Vehicle 1 and subcutaneously with Vehicle 2;
Group I was the untreated control group.

The structures appear in SMILES notation.

Take `N[C@@H]1CONC1=O` [D-cycloserine]: in test [1], the “Concentration of endogenous D-serine in the cerebellum” value is listed as “increase in the concentration of endogenous D-serine in the cerebellum” and the Effect on ataxia entry is listed as “ameliorating effect on ataxia”.
On to `CCOC(=O)[C@H](N)CO` [D-serine ethylester], for which, in test [1], the “Concentration of endogenous D-serine in the cerebellum” value is given as “increase in the concentration of endogenous D-serine in the cerebellum” and the Effect on ataxia result was “ameliorating effect on ataxia”.
For `CN1[C@@H]2C[C@@H](OC(=O)[C@H](CO)c3ccccc3)C[C@H]1[C@@H]1O[C@@H]12` [scopolamine], the “Mean Percentage of Conditioned Responses (%)” value (“Mean Percentage … (%)” for short) stood at 37.67% in the test with C57B16 mice (conditioning session 1); 40.33% with C57B16 mice (conditioning session 2); 43.78% with C57B16 mice (conditioning session 3); 43.33% with C57B16 mice (conditioning session 4); 45.67% with C57B16 mice (conditioning session 5); 45.98% in the test with C57B16 mice (conditioning session 6). The “Mean Percentage … (%)” value with C57B16 mice (conditioning session 7) was found to be 48.78%; with C57B16 mice (conditioning session 8), 51.56%; in the test on C57B16 mice (conditioning session 9) it was 51.33%; in the test with C57B16 mice (conditioning session 10), 52.56%; with C57B16 mice (extinction session 1), 51.22%; in the test on C57B16 mice (extinction session 2), 45.78%. In addition, the “Mean Percentage … (%)” value is recorded as 43.78% in the test on C57B16 mice (extinction session 3); 42.00% with C57B16 mice (extinction session 4); 43.22% in the test with C57B16 mice (extinction session 5); 26.44% with C57B16 mice (habituation session 1); 27.44% in the test with C57B16 mice (habituation session 2).
